Laboratory results: article PMC11137182, “Selective and brain-penetrant ACSS2 inhibitors target breast cancer brain metastatic cells” (Frontiers in Pharmacology, 2024)

Columns and labels:
4T1BR cells = assay: Intracranial 4T1BR tumor model in vivo; parameters: species or system BalbC mice
Description: (§1) Intracranial injections were performed as previously described ([Ciraku et al., 2021]). Briefly, Nu/Nu or BalbC female 4–6 week old mice from Charles River Laboratories (Wilmington, MA, United States) were immobilized using the Just for Mice ™ Stereotaxic Frame (Harvard Apparatus, Holliston, MA, United States) and injected intracranially with 5 μL of a 20,000 cells/μL solution of MDA-MB-231BR or 4T1BR cells stably expressing luciferase. Mice were injected intraperitoneally with 30 mg/kg of Dluciferin solution (Caliper Life Sciences, Hopkinton, MA) and results analyzed using Living Image software (Caliper Life Sciences, Waltham, MA, United States). For in vivo analog trials, mice were weighed daily and injected intraperitoneally with 50 mg/kg of AD-8007. Mice were euthanized 3 weeks after injection following survivial or at the end of drug treatment at indiciated day. The animal study was reviewed and approved by the Institutional Animal Care and Use Committee.
(§2) Brains were dissected, fixed in 4% formalin and prepared for processing/sectioning/embedding/blocking to generate paraffin embedded slides. The slides containing brain metastatic tumors were deparaffinized by Xylene and subsequent rehydration was done by decreasing concentrations of ethanol-water mixture. Antigen retrieval was done by citrate buffer immersion and steaming the slides for 45 min. Tissue was treated with 200–400 ul 1% BSA+5% serum PBS solution for 1h. Primary incubation was done at 4 °C overnight using primary antibody anti-FasN (Cell Signaling Technologies, C20G5). Secondary antibody incubation was done for an hour at RT with HRP conjugated Anti-Rabbit Secondary antibody (Cell Signaling Technologies). at 1:100 dilution. For IHC the stain was developed using the DAB kit by Vectastain (Vector Labs, Burlingame, CA, United States). Finally, slides were mounted and imaged under a light microscope. H&E and Ki-67 staining were performed and assessed at TJU, Department of Pathology, Philadelphia, PA by board-certified pathologist.

[1] = system: 4T1BR tumor bearing brain slices; assay: Ex vivo tumor-brain slice model; parameters: species or system nu/nu mice; conditions: 4T1BR brain slices, 100 μM, 6 days, bioluminescence
Description: Ex vivo brain slice tumor model was performed as previously described ([Ciraku et al., 2021]). Briefly, Nu/Nu athymic 4–6 week old mice Charles River Laboratories (Wilmington, MA, United States) were immobilized using the Just for Mice Stereotaxic Frame (Harvard Apparatus, Holliston, MA, United States) and injected intracranially with 5uL of 20,000 cells/uL solution of luciferase tagged MDA-MB-231BR or 4T1BR cells. Tumor growth was monitored via bioluminescence imaging on the IVIS system (Perkin Elmer, Waltman, MA, United States). Organotypic hippocampal cultures were prepared as described previously ([Ciraku et al., 2021]). Briefly, adult mice (4–6 weeks) or mice after 12 days following intracranial injection were decapitated and their brains rapidly removed into ice-cold (4°C) sucrose-aCSF composed of the following (in mM): 280 sucrose, 5 KCl, 2 MgCl2, 1 CaCl2, 20 glucose, 10 HEPES, 5 Na^+-ascorbate, 3 thiourea, 2 Na^+-pyruvate; pH = 7.3. […] Tumor growth was monitored via bioluminescence imaging on the IVIS 200 system (Perkin Elmer), and results were analyzed using Living Image software (Caliper Life Sciences, Waltham, MA, United StatesUnited States). […] Tissues were incubated at 37 ℃ , 5% CO2 for 4 h, and absorbance at 490 nm was measured with a Tecan Spark Microplate reader.

[2] = Human liver microsome stability; conditions: human, liver microsomes
MDA-MB-231BR cells = assay: Intracranial MDA-MB-231BR tumor model in vivo; parameters: species or system Nu/Nu mice
Description: as §1, §2

FASN = assay: Immunoblot of FASN protein levels; type: cell-based; conditions: MDA-MB-231BR cells, 24 h
Description: Immunoblotting protocols have been previously described. Briefly, cell lysates from one to five x 10^6 cells were prepared in radioimmune precipitation assay buffer (150 mM NaCl, 1% NP40, 0.5% DOC, 50 mM Tris HCL at pH 8, 0.1% SDS, 10% glycerol, 5 mM EDTA, 20 mM NaF, and 1 mM Na3VO4) supplemented with 1 μg/mL each of pepstatin, leupeptin, aprotinin, and 200 μg/mL PMSF. Lysates were cleared by centrifugation at 16,000 x g for 15 min at 4°C and analyzed by SDS-PAGE and autoradiography with chemiluminescence. Proteins were analyzed by immunoblotting using primary antibodies indicated above.

N[C@H](C(=O)N1CCCC(c2ccccc2)(c2ccccc2)C1)C1CC1 [AD-8007]
Ki-67 staining (4T1BR cells; 4T1BR intracranial, 10 days post treatment): reduced Ki-67 staining | survival (4T1BR cells; 4T1BR intracranial, Kaplan Meyer): significantly extended survival | tumor burden (bioluminescence) (4T1BR cells; 4T1BR intracranial, immunecompetent mice, 10 days): reduced tumor burden | body weight (4T1BR cells; immunecompetent mice, 10 days): did not cause significant weight lost | tumor growth of preformed tumors ex vivo [1]: significantly reduced tumor growth of preformed tumors | CLint scaled [2]: < 8.6 mL/min/kg | microsomal CLint [2]: < 9.6 µL/min/mg | half-life ([2]; Human Liver Microsome Stability T1/2, human liver microsomes): > 2.42 h | tumor burden (bioluminescence) (MDA-MB-231BR cells; MDA-MB-231BR intracranial, 50 mg/kg daily, 14 days): significantly reduced tumor burden | tumor burden and proliferation via H&E and Ki67 staining (MDA-MB-231BR cells; MDA-MB-231BR intracranial, 14 days post treatment): reduction in tumor burden and proliferation | survival (MDA-MB-231BR cells; MDA-MB-231BR intracranial, drug withdrawn after treatment, Kaplan Meyer): significantly extended surivial | FASN staining in tumors (MDA-MB-231BR cells; MDA-MB-231BR tumors, 14 days treatment, IHC): reduced expression of FASN staining | body weight (MDA-MB-231BR cells; immunodeficient mice, 50 mg/kg daily, 14 days): did not cause significant weight lost | protein levels of FASN (FASN): reduced protein levels of FASN
